Data as given in US20240336610A1, “3CL PROTEASE SMALL-MOLECULE INHIBITOR FOR TREATING OR PREVENTING CORONAVIRUS INFECTION, AND USE THEREOF” (THE GLOBAL HEALTH DRUG DISCOVERY INSTITUTE, priority 2021, published 2024).
Counter-ions that a name gives are not always drawn. Like-named read-outs stand apart in the source and are kept apart here.

Tests used:
SARS-CoV-2 = experiment: SARS-CoV-2/Hela-ACE test; type: cell-based; settings: read-out: SAR-CoV-2 EC50
[1] = Toxicity testing in uninfected cells; type: cell-based; settings: human, uninfected Hela-ACE cells, Cell-Titer Glo
Protocol: (§1) Toxicity Testing in Uninfected Cells
(§2) The compound was transferred to a 1536-well plate (Corning No. 9006BC), and then Hela-ACE cells were added (cell density: 600 cells/5 microliter of medium MEM with 2% FBS). After the assay plate was incubated at 37° C. in 5% CO2 for 48 hours, cell viability was tested. 2 μL of 50% Cell-Titer Glo (Promega No G7573) was diluted in water and added to a cell assay plate, and then a value on En Vision Plate Reader (Perkin Elmer) was read.

[2] = target: SARS-CoV-2 main protease (3CLpro) (Severe acute respiratory syndrome coronavirus 2 (2019-nCoV) (SARS-CoV-2), UniProt P0DTD1); experiment: Enzyme activity test; type: biochemical; settings: 200 nM recombinant SARS-CoV-2 main protease, 15 μM fluorescent substrate, pH 7.3
[3] = Oral pharmacokinetics in rats; type: in vivo; settings: rat, blood, male SD rats, 15 mg/kg
Protocol: Test Example 2: Measurement of Oral Pharmacokinetics in Rats
Male SD rats were orally administered with 15 mg/kg of the compound in the examples of the present disclosure, and blood samples were collected at 0.083, 0.25, 0.5, 1, 2, 4, and 8 hours respectively. After the samples were treated with anticoagulant EDTA-K2 and acetonitrile and centrifuged, a drug concentration analysis was conducted using LC/MS/MS.

Hela-ACE cells = experiment: Toxicity testing in uninfected cells; type: cell-based; settings: 48 hours, Cell-Titer Glo
Protocol: as §1, §2

[4] = Severe acute respiratory syndrome coronavirus 2, Hela-ACE cells infected with SARS-CoV-2 (USA-WA1/2020), 48 hours
[5] = Severe acute respiratory syndrome coronavirus 2, 48 h

| Molecule | EC50 (SARS-CoV-2; [4]) [nM] | CC50 at 48 h [1] [nM] | IC50 [2] [nM] | EC50 (SARS-CoV-2; [5]) [nM] | AUC(0-inf) [3] [ng·h/mL] | AUC(0-t) [3] [ng·h/mL] | Cmax [3] [ng/mL] | half-life [3] [h] | EC50 (SARS-CoV-2; Hela-ACE cells infected with SARS-CoV-2 (USA-WA1/2020), 48 hours) [nM] | CC50 (Hela-ACE cells) [nM] |
| --- | --- | --- | --- | --- | --- | --- | --- | --- | --- | --- |
| COc1cncc(C(C#N)NC(=O)[C@@H]2[C@@H]3[C@H](CN2C(=O)[C@@H](NC(C)=O)C(C)(C)C)C3(C)C)c1 (stereo partly drawn) [GDI-008, (1R,2S,5S)-3-((S)-2-acetamido-3,3-dimethylbutyryl)-N-(cyano(5-methoxypyridin-3-yl)methyl)-6,6-dimethyl-3-azabicyclo[3.1.0]he xane-2-carboxamide] | 417 | > 39800 | 37 | – | – | – | – | – | – | – |
| CC(=O)N[C@H](C(=O)N1C[C@H]2[C@@H]([C@H]1C(=O)N[C@H](C#N)c1cncc3ccccc13)C2(C)C)C(C)(C)C [GDI-036] | 20 | > 39800 | 20 | – | – | – | – | – | – | – |
| CC(=O)N[C@H](C(=O)N1C[C@H]2[C@@H]([C@H]1C(=O)NC(C#N)c1cncc(C(F)(F)F)c1)C2(C)C)C(C)(C)C (stereo partly drawn) [GDI-007, (1R,2S,5S)-3-((S)-2-acetamido-3,3-dimethylbutanol)-N-(cyano(5-(trifluoromethyl)pyridin-3-yl)methyl)-6,6-dimethyl-3-azabicyclo [3.1.0]hexane-2-carboxamide] | 512 | > 39800 | 170 | – | – | – | – | – | – | – |
| CC(C)(C)[C@H](NC(=O)C(F)(F)F)C(=O)N1C[C@H]2[C@@H]([C@H]1C(=O)NC(C#N)c1cncc(Br)c1)C2(C)C (stereo partly drawn) [GDI-011, (1R,2S,5S)-N-((5-bromopyridin-3-yl) (cyano)methyl)-3-((S)-3,3-dimethyl-2-(2,2,2-trifluoroacetylamino)butyryl)-6,6-dimethyl-3-aza bicyclo[3.1.0]hexane-2-carboxamide] | – | > 39800 | 78 | 613 | 3470 | 3450 | 1870 | 1.05 | – | – |
| CC(=O)N[C@H](C(=O)N1C[C@H]2[C@@H]([C@H]1C(=O)NC(C#N)c1cncc(Br)c1)C2(C)C)C(C)(C)C (stereo partly drawn) [GDI-003, (1R,2S,5S)-3-((S)-2-acetamido-3,3-dimethylbutyryl)-N-((5-bromopyridin-3-yl)(cyano)methyl)-6,6-dimethyl-3-azabicyclo[3.1.0]he xane-2-carboxamide] | 1250 | > 39800 | 50 | – | – | – | – | – | – | – |
| CC(=O)N[C@H](C(=O)N1C[C@H]2[C@@H]([C@H]1C(=O)N[C@@H](C#N)c1cncc3ccccc13)C2(C)C)C(C)(C)C [GDI-037] | 30 | > 39800 | 40 | – | – | – | – | – | – | – |
| CC(=O)N[C@H](C(=O)N1C[C@H]2[C@@H]([C@H]1C(=O)NC(C#N)c1cncc(C)c1)C2(C)C)C(C)(C)C (stereo partly drawn) [GDI-005, (1R,2S,5S)-3-((S)-2-acetamido-3,3-dimethylbutyryl)-N-(cyano(5-methylpyridin-3-yl)methyl)-6,6-dimethyl-3-azabicyclo[3.1.0]hex ane-2-carboxamide] | 117 | > 39800 | 80 | – | – | – | – | – | – | – |
| CC(C)(C)[C@H](N)C(=O)N1C[C@H]2[C@@H]([C@H]1C(=O)NC(C#N)c1cncc(Br)c1)C2(C)C (stereo partly drawn) [GDI-002, (1R,2S,5S)-3-((S)-2-amino-3,3-dimethylbutyryl)-N-((5-bromopyridin-3-yl)(cyano)methyl)-6,6-dimethyl-3-azabicyclo[3.1.0]he xane-2-carboxamide formate] | – | > 39800 | 320 | 7860 | – | – | – | – | – | – |
| CC(=O)N[C@H](C(=O)N1C[C@H]2[C@@H]([C@H]1C(=O)NC(C#N)c1cncc(C#N)c1)C2(C)C)C(C)(C)C (stereo partly drawn) [GDI-010, (1R,2S,5S)-3-((S)-2-acetamido-3,3-dimethylbutyryl)-N-(cyano(5-cyanopyridin-3-yl)methyl)-6,6-dimethyl-3-azabicyclo[3.1.0]hexane-2-carboxamide] | 5720 | > 39800 | 330 | – | – | – | – | – | – | – |
| CC(C)(C)OC(=O)NC(C(=O)N1C[C@H]2[C@@H]([C@H]1C(=O)NC(C#N)c1cncc(Br)c1)C2(C)C)C(C)(C)C (stereo partly drawn) [GDI-001] | 462 | > 39800 | 80 | – | 1830 | 1810 | 630 | 2.34 | – | – |
| CC(=O)N[C@H](C(=O)N1C[C@H]2[C@@H]([C@H]1C(=O)NC(C#N)c1cncc3ccccc13)C2(C)C)C(C)(C)C (stereo partly drawn) [GDI-006, (1R,2S,5S)-3-((S)-2-acetamido-3,3-dimethylbutyryl)-N-(cyano(isoquinolin-4-yl)methyl)-6,6-dimethyl-3-azabicyclo[3.1.0]hexane-2-carboxamide] | 28 | > 39800 | 28 | – | 1700 | 1690 | 2170 | 0.875 | – | – |
| (1R,2S,5S)-N-(cyano(5-(3-methyl-1,2,4-oxadiazol-5-yl)pyridin-3-yl)methyl)-3-(S)-3,3-dimethyl-2-(2,2,2-trifluoroacetylamino) butyryl)- 6,6-dimethyl-3-azabicyclo[3.1.0]hexane-2-carboxamide [GDI-017] | – | – | 46 | – | – | – | – | – | 660 | > 39800 |
| Cc1ccc(S(=O)(=O)N[C@H](C(=O)N2C[C@H]3[C@@H]([C@H]2C(=O)NC(C#N)c2cncc(C(F)(F)F)c2)C3(C)C)C(C)(C)C)cc1 (stereo partly drawn) [GDI-016, (1R,2S,5S)-N-(cyano(5-(trifluoromethyl)pyridin-3-yl)methyl)-3-((S)-3,3-dimethyl-2-((4-methylphenyl)sulfonamido)butanoyl)-6,6-dimet hyl-3-azabicyclo[3.1.0]hexane-2-carboxamide] | 32 | > 39200 | 31 | – | – | – | – | – | – | – |
